Laboratory results as given in US20260027065A1, “LIVER/ADIPOSE TISSUE DUAL-TARGETING COMPOSITE NANO-DRUG CARRIER” (IUCF-HYU (INDUSTRY-UNIVERSITY COOPERATION FOUNDATION …, priority 2022, published 2026).

Tested on: animal models of obesity-induced type 2 diabetes
Test: Treatment effect (body weight, insulin resistance, biomarkers), type 2 diabetes model
Format: in vivo, C57BL/6J mice
Conditions: ZnPP 0.25 mg/kg i.p. once a week for 4 weeks together with HO-1 inducer-encapsulated ATS/PLGA NPs 1 mg/kg i.v.; FIG. 9
Experimental: C57BL/6J mice were purchased from Orient Bio Inc. and acclimated for one week. From week 3, a 60% kcal high fat diet (HFD, Central Lab Animal, Inc.) was mixed with normal diet and fed. From week 6, only HFD was fed, and HFD was additionally fed for 8 weeks. In week 20, it was confirmed that the body weight reached 45 to 55 g, and the fasting blood glucose level also exceeded 250 mg/dl.
After constructing the animal models of obesity-induced type 2 diabetes and the animal models of obesity-induced non-alcoholic steatohepatitis, ATS/PLGA NPs in which 1 mg/kg of heme oxygenase-1 inducer was encapsulated were injected intravenously once a week for 4 weeks. Here, the results of a control administered intravenously with ATS/PLGA NPs (vehicle) in which 1 mg/kg of heme oxygenase-1 inducer was not encapsulated once a week for 4 weeks and a control administered intraperitoneally with 0.25 mg/kg of heme oxygenase-1 inhibitor (ZnPP) once a week for 4 weeks while intravenous administration with ATS/PLGA NPs in which 1 mg/kg of heme oxygenase-1 inducer was encapsulated once a week for 4 weeks were compared. The body weight was measured for 7 weeks, and then the mice were dissected to obtain mRNA and proteins from major organs such as the liver and adipose tissue for biomarker analysis.

SMILES: C=CC1=C(C)c2cc3[n-]c(cc4[n-]c(cc5nc(cc1n2)C(C)=C5C=C)c(C)c4CCC(=O)O)c(CCC(=O)O)c3C.[Zn+2] [ZnPP]
- Effect on body weight with co-administered HO-1 inhibitor: no effect
